Laboratory results as given in BindingDB's records for doi:10.1021/acschembio.5b00398 (University of Oxford, 2015).
pIC50: −log10 of the molar value.

What was measured:
Assay in all cases: EMSA
[1] = target: Cyclin-dependent kinase 2 [C118L] (Homo sapiens, UniProt P24941, C118L)
Experimental: (§1) First, 4.5 μL of 2× kinase solution was added to 0.05 μL of compound (maximum concentration 1.8 mM in 90% DMSO and 10% H2O). To allow for possible slow association, plates with type II inhibitors were incubated for 60 min at 30 °C. The assay started after the addition of 4.5 μL of 2× peptide with ATP and was run for 60 min at 30 °C, after which 16 μL of stop solution was added (100 mM HEPES pH 7.5, 5% DMSO, 0.1% coating reagent (Caliper Lifescience) 10 mM EDTA, pH 8.0, 0.015% BRIJ35). All reactions were performed in 50 mM HEPES, pH 7.5, 1 mM DTT, 0.02% Tween 20, 0.02% BSA, 10 mM betaglycerophosphate, 0.01 mM Na3VO4, 0.6% DMSO, and 2 μM peptide.

[2] = target: Cyclin-dependent kinase 2 [C118L,A144C] (Homo sapiens, UniProt P24941, A144C/C118L)
Experimental: as §1

[3] = target: Cyclin-dependent kinase 2 [A144G] (Homo sapiens, UniProt P24941, A144G)
Experimental: as §1

[4] = target: Cyclin-dependent kinase 2 [A144C] (Homo sapiens, UniProt P24941, A144C)
Experimental: as §1

[5] = target: Cyclin-dependent kinase 2 [F80M] (Homo sapiens, UniProt P24941, F80M)
Experimental: as §1

[6] = target: Cyclin-dependent kinase 2 (Homo sapiens, UniProt P24941)
Experimental: as §1

[7] = target: Cyclin-dependent kinase 2 [C118I] (Homo sapiens, UniProt P24941, C118I)
Experimental: as §1

[8] = target: Cyclin-dependent kinase 2 [F80T] (Homo sapiens, UniProt P24941, F80T)
Experimental: as §1

pIC50 [1]: < 5.00 | pIC50 [2]: < 5.00 | pIC50 [3]: < 5.00 | pIC50 [4]: < 5.00 | pIC50 [5]: < 5.00 | pIC50 [6]: < 5.00 | pIC50 [7]: < 5.00 | pIC50 [8]: 5.15
Compound: CC(=O)Nc1cc(Oc2ccc3c(C(=O)Nc4ccc(CN5CCN(C)CC5)c(C(F)(F)F)c4)cccc3c2)ncn1 [K03859 (2)]
